# Assay results as given in patent publication US20240041830A1, “CIRCULATING BIOMARKERS OF RESPONSE TO PD-1/PD-L1 BLOCKADE AND GSK-3 INHIBITION” (Brown University, priority 2022, published 2024).
# What was measured:
# [1] = toxicity monitoring in CT-26 BALB/c mice: body weight, serum chemistry, complete blood count; assay type: in vivo, mouse
# Procedure: In vivo studies. The experimental in vivo protocol (Protocol #19-01-003) was approved by the Institutional Animal Care and Use Committee of Brown University (Providence, RI, USA). Six-week to seven-week-old female BALB/c mice (RRID: IMSR_JAX:000651) were purchased from Taconic. A total of 50,000 cells were suspended in 50 μL ice-cold PBS and 50 μL Matrigel (Catalog #354234, Corning, New York, NY, USA), and 100 μL was injected subcutaneously into the rear flanks. Once tumor volume reached at least 100 mm^3, mice were randomly assigned to one of seven groups (12 mice/group): Control (isotype), elraglusib, elraglusib+Isotype, anti-PD-1, anti-PD-L1, elraglusib+anti-PD-1, and elraglusib+anti-PD-L1. All treatments were delivered by IP injection using the following dosing schedule: Isotype (70 mg/kg, twice a week), elraglusib (70 mg/kg, twice a week), anti-PD-1 (10 mg/kg, twice a week), anti-PD-L1 (10 mg/kg, twice a week). Treatment dosing was determined based on previous studies of elraglusib and anti-PD-1/anti-PD-L1. Ugolkov et al., Anticancer Drugs, 29, 717-724 (2018); McClanahan et al., Blood, 126, 203-211 (2015); Bernardo et al., Oncoimmunology, 10, 1881268 (2021). The solvent for elraglusib was DMSO and the formulation buffer for elraglusib was made using 75% PEG400, 7% Tween 80, and 18% Ethanol. The treatment continued until mice developed signs of discomfort from excessive tumor growth. Mice were weighed once a week to monitor signs of drug toxicity. The length (L) and width (W) of the masses were measured three times per week with a digital caliper, and the tumor volume was calculated by applying the formula: 0.5LW2 Collection of whole blood and serum was performed by cardiac puncture and sent to Antech Diagnostics GLP (Morrisville, NC, USA) for blood cell count and chemistry tests, or in-house cytokine profiling. Tumors and organs were dissected and harvested for analysis by immunohistochemistry and flow cytometry.
# The inventors evaluated the potential for elraglusib to increase the efficacy of immune checkpoint blockade and utilized a syngeneic murine colon carcinoma BALB/c murine model using a MSS cell line CT-26 (FIG. 4A). Mice were randomly assigned to one of seven groups: isotype (N=12), elraglusib (N=12), elraglusib+isotype (N=12), anti-PD-1 (N=12), anti-PD-L1 (N=12), elraglusib+anti-PD-1 (N=12), and elraglusib+ anti-PD-L1 (N=12). […] The inventors saw the most sustained response in the elraglusib and anti-PD-L1 combination therapy group.
# TABLE 13 description. […] Whole blood from long-term mice sacrificed was submitted for serum chemistry analysis. Results are shown from the complete metabolic panel and complete blood count with differential. ALB: Albumin, ALP: Alkaline Phosphatase, ALT: Alanine aminotransferase, AMY: Amylase, ANIS: Anisocytosis, AST: Aspartate aminotransferase, ATYP: Atypical Lymphs, BAS: Absolute Basophils, BAS%: % Basophils, BUN: Urea Nitrogen, CA: Calcium, CHOL: Cholesterol, CL: Chloride, CPK: Creatine kinase, CPLT: Clumped Platelets, CREA: Creatinine, DBIL: Direct Bilirubin, EOS: Absolute Eosinophils, EOS% : % Eosinophils, GGT: Gamma-glutamyl Transferase, GLU: Glucose, HB: Hemoglobin, HCT: Hematocrit, HJB: Howell-Jolly Bodies, HYPO: Hypochromasia, HYPR: Hyperchromasia, K: Potassium, LDH: Lactate Dehydrogenase, LIP: Lipase, LPLT: Large Platelets, LUC: Absolute Large Unstained Cells, LUC%: % Large Unstained Cells, LYM: Absolute Lymphocytes, LYM%: % Lymphocytes, MAC: Macrocytosis, MCH: Mean Corpuscular Hemoglobin, MCHC: Mean Corpuscular Hemoglobin […], MCV: Mean Corpuscular Volume, MG: Magnesium, MIC: Microcytosis, MON: Absolute Monocytes, MON%: % Monocytes, NA: Sodium, NEU: Absolute Neutrophils, NEU%: % Neutrophils, PHOS: Inorganic Phosphorus, PLT: Platelet Count, POLK: Poikilocytosis, RBC: Red Blood Cell Count, TBIL: Total Bilirubin, TPRO: Total Protein, TRIG: Triglyceride, WBC: White Blood Cell Count.
# NK-92 = test: Western blot analysis; assay type: cell-based, human
# Procedure: Western blot analysis. Cells were plated in a 6-well plate and incubated overnight before the spent media was replaced with drugged media. Drug treatment lasted for indicated durations. Protein was extracted using radioimmunoprecipitation (RIPA) assay buffer (Cat #R0278, Sigma-Aldrich, St. Louis, MO, USA) containing cOmplete™, Mini, EDTA-free Protease Inhibitor Cocktail (Cat #4693159001, Roche, Basel, Switzerland) from sub-confluent cells. Denaturing sample buffer was added, samples were boiled at 95° C. for ten minutes, and an equal amount of protein lysate was electrophoresed through NuPAGE™ 4 to 12%, bis-Tris, 1.5 mm, Mini Protein Gels (Invitrogen, Waltham, MA, USA) then transferred to PVDF membranes. The PVDF membrane was blocked with 5% non-fat milk (Sigma-Aldrich, St. Louis, MO, USA) in 1× TTBS. Primary antibodies were incubated with the transferred PVDF membrane in blocking buffer at 4° C. overnight. Secondary antibodies included Goat anti-Rabbit IgG (H+L) Secondary Antibody, HRP (Cat #31460, Invitrogen, Waltham, MA, USA), and Goat anti-Mouse IgG (H+L) Secondary Antibody, HRP (Cat #31430, Invitrogen, Waltham, MA, USA). The signal was detected using Pierce™ ECL Western Blotting Substrate (Cat #32106, Thermo Scientific, Waltham, MA, USA) and a Syngene Imaging System (RRID: SCR_015770).
# Because of the differential impact of elraglusib on tumor and immune cells that the inventors observed via Western blot, the inventors compared the levels of another survival protein Mcl-1 in NK-92 natural killer cells.
# HCT 116 GFP+ cells = test: single-color GFP+ immune cell co-culture
# Procedure: Single-color immune cell co-culture experiments. A total of 5000 HT-29 GFP+ or HCT 116 GFP+ cells were plated per well in a clear-bottom, black-walled 96-well tissue culture plate and were allowed to adhere overnight. Cells were subsequently treated with DMSO, 5 μM elraglusib, or 5000 TALL-104 or NK-92 cells (for an effector-to-tumor ratio of 1:1) for forty-eight hours. Nine images were taken per well at 10× magnification using a Molecular Devices ImageXpress® Confocal HT.ai High-Content Imaging System and quantified for the number of GFP+ objects using the MetaXpress (RRID: SCR_016654) software (Molecular Devices, San Jose, CA, USA). 40× images were also taken at twenty-four hours for representative images of cellular morphology changes.
# To determine if pyroptosis-mediated immune cell activity played a role in the co-culture results, the inventors examined higher-power co-culture images for evidence of pyroptosis.
# [2] = immune cells, cell line not given
structure (smiles),measurement,setting,value
Cn1cc(C2=C(c3coc4ccc(F)cc34)C(=O)NC2=O)c2cc3c(cc21)OCO3 [elraglusib],ALB (Albumin),[1]; long-term mice sacrificed,2.7 g/dL
same,ALP (Alkaline Phosphatase),[1]; long-term mice sacrificed,4 U/L
same,ALT (Alanine aminotransferase),[1]; long-term mice sacrificed,26 U/L
same,AMY (Amylase),[1]; long-term mice sacrificed,275 U/L
same,AST (Aspartate aminotransferase),[1]; long-term mice sacrificed,198 U/L
same,BUN (Urea Nitrogen),[1]; long-term mice sacrificed,27 mg/dL
same,CHOL (Cholesterol),[1]; long-term mice sacrificed,101 mg/dL
same,CL (Chloride),[1]; long-term mice sacrificed,111 mmol/L
same,CPK (Creatine kinase),[1]; long-term mice sacrificed,1968 U/L
same,CREA (Creatinine),[1]; long-term mice sacrificed,0.2 mg/dL
same,DBIL (Direct Bilirubin),[1]; long-term mice sacrificed,0 mg/dL
same,GGT (Gamma-glutamyl Transferase),[1]; long-term mice sacrificed,0 U/L
same,GLU (Glucose),[1]; long-term mice sacrificed,230 mg/dL
same,K (Potassium),[1]; long-term mice sacrificed,>10.0 mmol/L
same,LDH (Lactate Dehydrogenase),[1]; long-term mice sacrificed,2230 U/L
same,LIP (Lipase),[1]; long-term mice sacrificed,59 U/L
same,MG (Magnesium),[1]; long-term mice sacrificed,1.2 mg/dL
same,NA (Sodium),[1]; long-term mice sacrificed,146 mmol/L
same,PHOS (Inorganic Phosphorus),[1]; long-term mice sacrificed,8.2 mg/dL
same,TBIL (Total Bilirubin),[1]; long-term mice sacrificed,0.5 mg/dL
same,TPRO (Total Protein),[1]; long-term mice sacrificed,4.5 g/dL
same,TRIG (Triglyceride),[1]; long-term mice sacrificed,136 mg/dL
same,renal function (BUN and creatinine),"[1]; mouse, in vivo",maintained normal renal function
same,NF-κB-inducing kinase (NIK) expression,NK-92; [2],increases
same,Survivin expression,NK-92; [2],increases
same,Mcl-1 protein expression,NK-92; through the 72-hour endpoint,did not observe a significant decrease
same,tumor cell death,HCT 116 GFP+ cells; 5 μM elraglusib and NK-92 vs drug-only or immune-cell-only,increased tumor cell death
same,GFP+ cells per low-powered field,"HCT 116 GFP+ cells; 5 μM elraglusib only vs DMSO only, forty-eight hours",significant decrease
same,number of GFP+ cells per field,HCT 116 GFP+ cells; TALL-104 and 5 μM elraglusib vs TALL-104,significant decrease
same,pyroptotic events,"HCT 116 GFP+ cells; co-culture with TALL-104, 5 μM elraglusib",significant increase
